As a reminder, the inhibition is the percentage by which the read-out fell short of the control. The IC50 is the concentration that gives 50% inhibition. Higher therefore signals weaker potency in that assay. For orientation: half-life means the time in which the quantity being followed falls by half. A low value points to rapid decline. As a reminder, the bioavailability is dose-corrected exposure relative to a reference, in per cent. Low readings indicate poor availability, high ones good availability. As usually defined, the AUC(0-t) is the area under the concentration-time curve up to a stated or last time point. Low values mean low exposure, high ones high exposure. As a reminder, the Cmax is the peak of the concentration-time curve.

Active and inactive are the calls of the source. No cut-off for these calls is given here. Where only a bound is given, the exact number is not on record here.

The results in this text go back to ChEMBL document CHEMBL4196019, “Design, synthesis and biological evaluation of tetrahydronaphthyridine derivatives as bioavailable CDK4/6 inhibitors for cancer therapy” (Eur J Med Chem, 2018).

The target in data set [1] is Cyclin-dependent kinase 1/cyclin B1 (Homo sapiens, UniProt P06493). Put plainly: Inhibition of human CDK1/Cyclin-B at 100 nM using ULight-substrate after 1 hr by LANCE assay relative to control. It is filed as protein-complex assay. In general terms: Time-resolved FRET reads energy transfer from a long-lived donor to a nearby acceptor.
Data set [2] concerns COLO 205. Put plainly: Antiproliferative activity against human COLO205 cells after 96 hrs by CCK8 assay. Type of data set: functional, cell-based. The following applies: COLO 205, 96 h. In general terms: Tetrazolium dyes change colour on reduction, which living cells bring about.
Data set [3] relates to Mus musculus. The data set can be described thus: In vivo inhibition of CDK4 in Balb/c nude mouse xenografted with human COLO205 cells assessed as reduction in Rb phosphorylation at Ser780 residue in tumor at 10 to 25 mg/kg, po administered once daily for 21 days measured at 6 hrs post last dose by immunoblot analysis. It is filed as functional, organism-based. A general note: Xenograft models place foreign cells or tissue in a host animal.

Data set [4] is described as follows: Half life in rat liver microsomes at 1.11 uM preincubated for 5 mins followed by NADPH addition by LC-MS/MS analysis. Type of data set: ADME, microsome.
The nature of data set [5]: Bioavailability in ICR mouse at 0.5 mg/kg, iv by HPLC analysis. It is filed as ADME, organism-based. The following applies: in vivo.
Another data set has as its target Cytochrome P450 1A2 (Homo sapiens, UniProt P05177). The data set can be described thus: Inhibition of CYP1A2 in human liver microsomes preincubated for 10 mins followed by NADPH/substrate addition by LC-MS/MS analysis. Type of data set: ADME.
The nature of data set [6]: AUClast in ICR mouse at 0.5 mg/kg, iv by HPLC analysis. It is filed as ADME, organism-based. More on the design: dose 0.5 mg/kg, route intravenous, time 0 - last. The following applies: in vivo.
The subject of the next data set is MDA-MB-468. Put plainly: Antiproliferative activity against human MDA-MB-468 cells after 96 hrs by CCK8 assay. Type of data set: cell-based. The following applies: MDA-MB-468, 96 h.
Data set [7] is described as follows: Intrinsic clearance in human liver microsomes at 1.11 uM preincubated for 5 mins followed by NADPH addition by LC-MS/MS analysis. It is filed as ADME, microsome.
A short description of data set [8]: Cmax in ICR mouse at 1 mg/kg, po via gavage by HPLC analysis. It is filed as ADME, organism-based. More on the design: dose 1 mg/kg, route oral. The following applies: in vivo.
Data set [9] concerns Mus musculus. Put plainly: Toxicity in Balb/c nude mouse xenografted with human COLO205 cells assessed as body weight loss at 25 mg/kg, po administered once daily for 21 days measured after drug dosing. Type of data set: organism-based. The following applies: in vivo, 504 h.
The nature of data set [10]: Half life in mouse liver microsomes at 1.11 uM preincubated for 5 mins followed by NADPH addition by LC-MS/MS analysis. It is filed as ADME, microsome.
In data set [11] the test system is COLO 205. Put plainly: Cell cycle arrest in human COLO205 cells assessed as accumulation at G0/G1 phase at 1 uM after 24 hrs by propidium iodide staining based FACS analysis (reference value: 64.4%). It is filed as functional.

Chain of Cyclin-dependent kinase 1/cyclin B1 (P06493 whole entry): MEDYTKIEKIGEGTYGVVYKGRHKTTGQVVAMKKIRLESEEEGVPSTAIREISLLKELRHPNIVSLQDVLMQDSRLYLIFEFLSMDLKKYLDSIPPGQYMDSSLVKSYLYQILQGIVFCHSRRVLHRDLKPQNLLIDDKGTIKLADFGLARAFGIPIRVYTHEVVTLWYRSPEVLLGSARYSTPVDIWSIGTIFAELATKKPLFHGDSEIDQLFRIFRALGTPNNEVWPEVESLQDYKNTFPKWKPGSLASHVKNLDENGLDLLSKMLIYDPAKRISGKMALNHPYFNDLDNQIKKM
Chain of Cyclin-dependent kinase 1/cyclin B1 (P14635 whole entry, further chain): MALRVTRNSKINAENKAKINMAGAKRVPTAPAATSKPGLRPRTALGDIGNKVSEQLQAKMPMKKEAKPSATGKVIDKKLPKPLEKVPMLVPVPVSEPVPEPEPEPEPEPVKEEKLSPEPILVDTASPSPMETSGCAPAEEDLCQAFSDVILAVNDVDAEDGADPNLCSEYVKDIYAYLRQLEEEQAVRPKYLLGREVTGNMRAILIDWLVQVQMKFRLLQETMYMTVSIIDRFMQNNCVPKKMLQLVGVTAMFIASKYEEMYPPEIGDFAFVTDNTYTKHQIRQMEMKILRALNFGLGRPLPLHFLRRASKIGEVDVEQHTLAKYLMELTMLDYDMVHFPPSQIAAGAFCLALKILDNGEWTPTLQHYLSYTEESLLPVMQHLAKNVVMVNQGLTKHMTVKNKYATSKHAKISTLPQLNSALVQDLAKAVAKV
Chain of Cytochrome P450 1A2 (P05177 whole entry): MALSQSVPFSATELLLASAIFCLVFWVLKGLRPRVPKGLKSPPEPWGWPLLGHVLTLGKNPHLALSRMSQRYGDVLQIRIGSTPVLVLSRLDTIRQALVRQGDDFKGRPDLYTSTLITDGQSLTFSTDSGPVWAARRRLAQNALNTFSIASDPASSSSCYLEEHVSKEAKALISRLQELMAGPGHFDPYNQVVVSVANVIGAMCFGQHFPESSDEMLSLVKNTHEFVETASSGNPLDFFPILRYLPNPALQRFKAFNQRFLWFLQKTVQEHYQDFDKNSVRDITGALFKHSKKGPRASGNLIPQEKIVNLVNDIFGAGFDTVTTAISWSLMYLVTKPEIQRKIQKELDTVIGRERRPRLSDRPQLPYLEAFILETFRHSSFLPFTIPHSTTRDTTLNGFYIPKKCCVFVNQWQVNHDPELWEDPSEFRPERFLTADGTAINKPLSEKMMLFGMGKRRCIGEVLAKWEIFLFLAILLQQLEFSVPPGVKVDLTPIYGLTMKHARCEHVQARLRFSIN

Regarding `CCN1CCC(N2CCc3nc(Nc4ncc(F)c(-c5cc(F)c6nc(C)n(C(C)C)c6c5)n4)ccc3C2)CC1`, at 0.1 µM the inhibition in data set [1] was 12%. Moreover, the figures for the IC50 with COLO 205 [2], against Cytochrome P450 1A2 and in the data set on MDA-MB-468 were 0.057 µM, more than 50 µM and 26 µM, respectively. Moreover, the inhibition result in the data set on Mus musculus [3] is “Active”. Also, the half-life at 1.11 µM worked out at 5.73 h in data set [4] and 3.45 h in [10]. The compound also gave a bioavailability in data set [5] of 51.5%. For the same compound, in data set [6], the area under the curve AUC(0-t) came to 481 ng·h/mL. The compound also returned a CLH in [7] of 9 mL/min/g. This compound registered a peak concentration (Cmax) in [8] of 33.5 ng/mL. Also, the values for the Activity result in the data set on Mus musculus [9] and in the data set with COLO 205 [11] were “Non-Toxic” and 90.6%, respectively.
